Test [1] relates to pERK and pMEK in RAS-mutant HCT-116 cells. The test is described as follows: Immunoblot analysis of pERK and pMEK in HCT-116 cells. It counts as cell-based, human. The note with it: 1 h treatment, FIG. 2. The procedure:
For immunoblotting analysis, 500,000 HCT-116 cells were plated in 1 mL of complete RPMI-1640 growth medium in 24-well flat-bottomed transparent dishes (Costar). Cells were maintained overnight at 37° C. under 5% CO2 before treatment with compounds' dilution series for one hour.
Cells were then washed once in PBS and lized in 250 μL of Igepal Lysis Buffer (50 mM Tris-HCl pH 7.5, 150 mM NaCl, 1% Igepal-CA630, 1 mM EDTA, 10% Glycerol) supplemented with Leupeptin, Aprotinin, PMSF, phosphatase inhibitor cocktail (Sigma) and Na3VO4 at 4° C. for 15 minutes with gentle rocking. Cell extracts were then cleared by centrifugation at 20,000 g at 4° C. for 10 minutes. Cleared lysates were then transferred on ice in fresh tubes and then boiled in sample loading buffer (100 mM Tris-HCl pH 6.8, 4% SDS, 0.2% bromophenol blue, 20% glycerol, 200 mM p-mercaptoethanol) for 5 minutes prior to fractionation by SDS-PAGE and transfer to nitrocellulose membranes (PALL). […]
Background: Immunoblotting shows a protein as a band on a membrane.

Test [2] deals with pERK in RAS-mutant cancer cell lines. Kind of test: Phospho-ERK inhibition (AlphaLISA), panel of RAS-mutant cancer cell lines. It counts as cell-based, human. Particulars: in 10 of the 13 RAS-mutant cell lines tested. The procedure: All cancer cell lines (A375, A101D, A2058, RKO, HT29 SK-MEL 30, IPC298, HepG2, HCT-116, Lovo, SWV620, SW480, NCI-H358, NCI-H2122, Calu-6, NCIH2087, NCIH1755, NCIH1666 and Mewo) were obtained from ATCC and cultured in RPMI-1640 medium (Gibco) supplemented with 5% heat inactivated fetal bovine serum (FBS, Wisent) at 37° C. under 5% CO2. Cells were maintained in T175 flasks (Greiner). They were passaged by removing the culture medium, washing once in 10 mL of room temperature Phosphate Buffered Saline (PBS; Wisent) and incubating at 37° C. with 2 mL of 0.05% Trypsin (Thermo-Fisher). […]
After treatment, media was removed and cells were lysed in 50 μL of 1× AlphaScreen Ultra Lysis Buffer (Perkin Elmer). […] After completion of the reactions, the signals were recorded on an EnVision plate reader (Perkin Elmer) using built in AlphaLISA® settings.
The effect of each compound dilution on the pERK signal was expressed in % inhibition and calculated as follows. […]
The ability of each compound to inhibit pERK signal was expressed as an IC50 value obtained by plotting the inhibition values for each data point of a dilution series and fitting the obtained curves using a log(agonist) versus response-variable slope (four parameters) function using GraphPadPrism (V7.0) or Dotmatics Screening Ultra platform. […]
Background: Bead proximity is the source of the signal in Alpha formats.

A value given as a limit tells only on which side of the number the result lay.

Consider `Nc1cccc2c1ncn2-c1ccc2ncnc(Nc3c(F)ccc(NS(=O)(=O)c4cccc(Cl)c4Cl)c3F)c2n1` [Example 99], for which, in test [1], the “paradoxical induction of pERK or pMEK signaling (immunoblot)” value is recorded as “does not induce paradoxical induction of pERK or pMEK signaling”.

As to `Cc1ccc2c(Nc3cccc(Cl)c3F)nccc2c1NC(=O)c1csc2c(N)ncnc12` [Belvarafenib, reference compound], in test [2], the “YMIN of pERK IC50 curves” value was less than −30%.

(Values after US12139488B2, “Pyrido[3,2-d]pyrimidine compounds uses thereof for treating a proliferative disease” (Universite de Montreal, priority 2021, dated 2024).)
